Data from patent publication US12544403B2, “Methods to treat mitochondrial-associated dysfunctions or diseases” (The General Hospital Corporation, priority 2019, dated 2026).

What was measured:
hemoglobin = hemoglobin (Homo sapiens, UniProt P68871+P69905); settings: cited from earlier work
[1] = Hematocrit and COHb measurements (blood gas analyzer) in mice chronically breathing CO; assay type: in vivo; settings: for hematocrit: after three weeks of 600 ppm CO treatment
Protocol: Eighty microliters of blood were collected by tail snip into a heparinized capillary. Hemoglobin concentration, hematocrit and the saturation of hemoglobin with oxygen (O2Hb) and carbon monoxide (COHb) were measured using a blood gas analyzer (ABL800 FLEX, Radiometer, Copenhagen, Denmark).
(§1) Mice were housed in 80-L transparent acrylic boxes. Control chambers were provided with a constant flow of medical air at 21% FiO2. A concentration of 11% or 17% oxygen was obtained by mixing medical air with nitrogen obtained from a nitrogen generator (MAG-20; Higher Peak). A concentration of 600 ppm CO was obtained by mixing medical air with CO from a cylinder containing 2% CO (20,000 ppm) (Airgas). The total gas flow through the chamber was adjusted to maintain chamber CO2 concentrations below 0.4% (CO200; Extech). Soda lime was added to the chambers as a CO2 scavenger. The oxygen concentration was measured at the outlet port of the chamber with an O2 sensor (MiniOx 1; Ohio Medical), which was calibrated using an 8.55% O2 reference tank (Airgas). In a similar way the CO concentration was measured a CO sensor (MSA Altair PRO; MSA Safety Inc, Pittsburgh, Pa), which was calibrated using a 1000 ppm CO reference cylinder (Airgas). Oxygen levels inside the chambers were tolerated within a 0.4% offset from the target concentration by adjusting nitrogen flow as needed. Temperature was maintained at 24-26° C., and humidity was maintained at 30-70%. A standard light-dark cycle of ˜12 h light exposure was used. Mice were housed in cages with standard bedding and given unlimited access to food and water.

[2] = Brain tissue PO2 measurement (vestibular nuclei, optical probe); assay type: in vivo, mice; settings: optical probe (FIG. 3G)
Protocol: Ndufs4^−/− and WT mice were anesthetized with Isoflurane (induction at 2-4%, maintenance at 1-1.5%), intubated, and mechanically ventilated with a tidal volume of 8 ml/kg, a respiratory rate of 110 breaths per minute and an inspired fraction of oxygen (FiO2) of 21%. Mice were placed in a prone position and the head was stabilized using a stereotaxic frame (ASI instruments, Inc., MI). After incision and dissection of the skin, an opening in the skull was performed using a micro-drill (MD-1200, Braintree Scientific, Inc., MA) and a PO2 probe was inserted at the desired location. The coordinates for the thalamic measurements were mediolateral [ML]=−1.00 mm, anterioposterior [AP]=−2.00 mm, and dorsoventral [DV]=−4.00 mm from the bregma, while the coordinates for the vestibular nuclei were ML=−1.25 mm, AP=−6.00 mm, and DV=−3.90 mm from the bregma. […] In some experiments the FiO2 was modulated over the course of the test and the brain PO2 was simultaneously measured.
(§2) Mice were housed in 80-L transparent acrylic boxes. […] The oxygen concentration was measured at the outlet port of the chamber with an O2 sensor (MiniOx 1; Ohio Medical), which was calibrated using an 8.55% O2 reference tank (Airgas). In a similar way the CO concentration was measured a CO sensor (MSA Altair PRO; MSA Safety Inc, Pittsburgh, Pa), which was calibrated using a 1000 ppm CO reference cylinder (Airgas). […]

Ndufs4 KO mice [3] = assay: Survival and body weight of Ndufs4 KO mice (Leigh syndrome model) breathing CO; assay type: in vivo
Excerpt: All animal work in manuscript was approved by the Subcommittee on Research Animal Care and the Institutional Animal Care and Use Committee of Massachusetts General Hospital. Ndufs4^−/− were obtained from Palmiter laboratory (University of Washington). Mice lacking Phd1 (Aragones et al., 2008), Nestin-Phd2 (Mazzone et al., 2009) and Phd3 (Bishop et al., 2008) were provided by the Carmeliet laboratory (KU Leuven). Vh1L^ch/ch mice were provided by Josef Prchal (University of Utah). Genetic crosses were performed by crossing Ndus4^+/− mice with remaining strains. Throughout this study, Ndufs4^+/+ and Ndufs4^+/− mice were indiscriminately used as healthy controls, since there is no apparent phenotypical difference between these genotypes. When possible, controls from the same genetic cross were used, in order to make comparisons between reasonably similar genetic backgrounds. Pups were genotyped and weaned from mothers at 25-30 d of age. Cages and water were changed weekly. […]
as §2

Ndufs4 KO mice [4] = assay: T2-weighted brain MRI of Ndufs4 KO mice breathing CO; assay type: in vivo
Excerpt: as §1
MRI scans of the brain were performed as previously described (Ferrari et al., 2017), using respiratory gated T2-weighted RARE (rapid acquisition of refocused echoes) MRI images acquired on a 4.7-T small animal scanner (Pharmascan; Bruker) with the following parameters: RARE factor: 10, echo time: 60 ms, repetition time: 6000 ms, Averages: 8, 192×192×24 image matrix with a voxel size of 0.130×0.130×0.7 mm. Mice were under anesthesia (isoflurane between 0.5-1.5% in room air) during the imaging procedure. Images were generated using a DICOM reader (Osirix, University of Geneva).

[5] = Ndufs4 KO mice exposed to CO for 2-3 months (FIG. 3H)

hemoglobin, sequence (P69905 2-142 limits assumed): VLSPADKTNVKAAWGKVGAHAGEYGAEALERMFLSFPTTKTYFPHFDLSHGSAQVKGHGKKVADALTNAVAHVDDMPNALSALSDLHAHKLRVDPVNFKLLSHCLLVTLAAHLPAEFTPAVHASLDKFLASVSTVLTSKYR
hemoglobin, sequence (P68871 2-147 limits assumed): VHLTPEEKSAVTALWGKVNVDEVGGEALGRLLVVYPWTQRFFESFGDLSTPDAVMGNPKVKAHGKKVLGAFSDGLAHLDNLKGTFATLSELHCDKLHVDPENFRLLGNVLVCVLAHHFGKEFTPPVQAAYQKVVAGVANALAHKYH

SMILES: [C-]#[O+] [CO, carbon monoxide]
- affinity for hemoglobin relative to oxygen (hemoglobin): 200 fold
- hematocrit ([1]; Ndufs4 KO mice): 76%
- hematocrit ([1]; WT mice): 79%
- arterial O2Hb ([1]; chronic, continuous 600 ppm CO in air (FIG. 3C)): ~60%
- arterial COHb ([1]; chronic, continuous 600 ppm CO in air, WT mice (FIG. 3C)): ~40%
- brain PO2 ([2]; Ndufs4 KO mice chronically breathing CO at 600 ppm in air): 36 mmHg
- brain PO2 ([2]; WT mice chronically breathing CO at 600 ppm in air): 19 mmHg
- median survival (Ndufs4 KO mice [3]; 600 ppm CO in room air (FIG. 3E)): ~150 days
- body weight (Ndufs4 KO mice [3]; 600 ppm CO started at late-stage disease (FIG. 3D)): body weight gradually regained
- Leigh's disease lesions on MRI (Ndufs4 KO mice [4]; [5]): not present
- new brain lesions on MRI due to chronic CO treatment (Ndufs4 KO mice [4]; [5]): hyperintense lesions apparent in the caudoputamen region of the brain
- MRI lesions in the vestibular nucleus (Ndufs4 KO mice [4]; late-stage Ndufs4 KO mice, 600 ppm CO for 2-3 weeks (FIG. 3F)): completely reversed lesions in the vestibular nucleus
